The values below come from patent US20100173888A1 (Pfizer Inc, priority 2008, published 2010).

Sequence of human recombinant H-PGDS (O60760 whole entry): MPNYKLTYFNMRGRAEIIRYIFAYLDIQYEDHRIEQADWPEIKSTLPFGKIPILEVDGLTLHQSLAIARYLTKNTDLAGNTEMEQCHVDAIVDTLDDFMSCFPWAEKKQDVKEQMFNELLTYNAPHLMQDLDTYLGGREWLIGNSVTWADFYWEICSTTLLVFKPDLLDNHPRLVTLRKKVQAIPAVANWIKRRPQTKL

This experiment addresses human recombinant H-PGDS (Homo sapiens, UniProt O60760). Put plainly: Fluorescence intensity h-PGDS TBA enzyme assay (PGH2 depletion, MDA/TBA fluorescence). Particulars: 1:175,000 human recombinant H-PGDS, 42 second reaction, 3-fold serial dilutions, highest concentration typically 1 μM. Type of experiment: biochemical. The method, boiled down:
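Recombinant human H-PGDS preincubated with inhibitor 10 min at room temperature in pH 8.0 Tris, MgCl2, IgG, 2.5 mM glutathione, 0.5% DMSO. Reaction with 5.0 μM PGH2 stopped at 42 s with FeCl2/citric acid; MDA–TBA fluorescence (ex 530/em 565 nm) read after 70° C. IC50 by 4-parameter fit, 11 concentrations.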
Turning to `CS(=O)(=O)N[C@@H]1CCC[C@H](NC(=O)c2ccc(-c3cccc(F)c3)nc2)C1` (relative stereo) [Example 207, 6-(3-Fluoro-phenyl)-N-cis-(3-methanesulfonylamino-cyclohexyl)-nicotinamide], the IC50 (in general, the concentration that inhibits the measured activity by half) stood at 0.0811 µM.
Take `O=C(N[C@H]1CC[C@@H](C(=O)N2CCN(CCO)CC2)C1)c1ccc(-c2cccc(F)c2)nc1` [Example 156, 6-(3-fluorophenyl)-N-[(1S,3R)-3-{[4-(2-hydroxyethyl)piperazin-1-yl]carbonyl}cyclopentyl]nicotinamide]: the IC50 came to 0.0115 µM.
With `CN1CCN(C(=O)N[C@@H]2CCC[C@H](NC(=O)c3ccc(-c4cccc(F)c4)nc3)C2)CC1` (relative stereo) [Example 268, N-(cis-3-({[6-(3-Fluorophenyl)pyridine-3-yl]carbonyl}amino)cyclohexyl]-4-methylpiperazine-1-carboxamide], the IC50 was found to be 0.0246 µM.
Regarding `Cc1cccc(-c2ccc(C(=O)NC3CCCCC3)cn2)c1` [Example 19, N-Cyclohexyl-6-(3-methylphenyl)nicotinamide], the IC50 was 0.0102 µM.
As for `O=C(N[C@@H]1CCC[C@@H](C(=O)N2CCCC2)C1)c1ccc(-c2cccc(F)c2)nc1` (relative stereo) [Example 239], the figure is 0.0349 µM; as for `O=C(N[C@@H]1CC[C@@H](O)C1)c1ccc(-c2cccc(F)c2)nc1` [Example 130A, 6-(3-fluorophenyl)-N-[(1R,3R)-3-hydroxycyclopentyl]nicotinamide], 0.0523 µM; as for `Cc1noc(C[C@H]2CC[C@H](NC(=O)c3ccc(-c4cccc(F)c4)nc3)CC2)n1` [Example 261, 6-(3-Fluorophenyl)-N-[trans 4-(3-methyl-[1,2,4]oxadiazol-5-ylmethyl)cyclohexyl]nicotinamide], 0.004 µM.
Turning to `O=C(NC1CCCC1)c1ccc(-c2cccc(F)c2)nc1` [Example 9, N-Cyclopentyl-6-(3-fluorophenyl)nicotinamide], the IC50 worked out at 0.00711 µM.
For the molecule `COc1cccc(-c2ccc(C(=O)NC3CCCCC3)cn2)c1` [Example 20, N-Cyclohexyl-6-(3-methoxyphenyl)nicotinamide], the concentration for half-maximal inhibition (IC50) was found to be 0.105 µM.
As to `CC(C)(O)C1CCC(NC(=O)c2ccc(-c3cccc(F)c3)nc2)CC1` (stereo not drawn) [Example 48, 6-(3-Fluorophenyl)-N-[4-(1-hydroxy-1-methylethyl)cyclohexyl]nicotinamide], the IC50 was 0.000614 µM.
Turning to `O=C(N[C@H]1CCC[C@@H](NC(=O)N2CCOCC2)C1)c1ccc(-c2cccc(F)c2)nc1` (relative stereo) [Example 267], the IC50 was found to be 0.011 µM.
As for `O=C(N[C@H]1CC[C@@H](C(=O)N2CC[C@H](F)C2)C1)c1ccc(-c2cccc(F)c2)nc1` [Example 159, 6-(3-fluorophenyl)-N-[(1S,3R)-3-{[(3S)-3-fluoropyrrolidin-1-yl]carbonyl}cyclopentyl]nicotinamide], the figure is 0.0049 µM.
In the case of `CN1CCC(C(=O)N[C@H]2CC[C@@H](NC(=O)c3ccc(-c4cccc(F)c4)nc3)CC2)CC1` [Example 218, 6-(3-fluorophenyl)-N-(cis-4-{[(1-methylpiperidin-4-yl)carbonyl]amino}cyclohexyl)nicotinamide], the IC50 was determined as 0.0797 µM.
As for `COCCNC(=O)[C@H]1CC[C@@H](NC(=O)c2ccc(-c3cccc(F)c3)nc2)C1` [Example 185], the figure is 0.0254 µM; as for `CN1CCN(C(=O)[C@H]2CC[C@@H](NC(=O)c3ccc(-c4cccc(F)c4)nc3)C2)CC1=O` [Example 182, 6-(3-Fluorophenyl)-N-[(1R,3S)-3-[(4-methyl-3-oxopiperazin-1-yl)carbonyl]cyclopentyl}nicotinamide], 0.0178 µM.
The value for `CCC(O)CNC(=O)[C@H]1CCC[C@@H](NC(=O)c2ccc(-c3cccc(F)c3)nc2)C1` (stereo partly drawn) [Example 197] was 0.0102 µM.
As to `O=C(N[C@@H]1CCC[C@@H](C(=O)NCCCO)C1)c1ccc(-c2cccc(F)c2)nc1` (relative stereo) [Example 242], the IC50 stood at 0.0198 µM.
In the case of `O=C(NC1CCCCC1)c1ccc(-c2cccc(F)c2)nc1` [Example 18, N-Cyclohexyl-6-(3-fluorophenyl)nicotinamide], the IC50 was 0.00772 µM.
